One experiment deals with HER2. The experiment in a line: Immunoblot of HER2 expression, pancreatic and breast cancer cells. It counts as cell-based. Background: Immunoblotting shows a protein as a band on a membrane.
In a further experiment the test system is Cullin-3. Kind of experiment: Cell Cycle Antibody Array, PANC-1 cells. In kind it is cell-based. The note with it: normalized to GAPDH. An excerpt:
Cell Cycle Protein Expression. Cell Cycle Antibody Array (FullMoon BioSystems Inc, catalogue number: ACC:058), a high throughput ELISA based antibody array, designed for qualitative/semi-quantitative protein expression profiling was employed to investigate the protein changes after drug treatment. PANC-1 cells were lysed in buffer containing protease and phosphatase inhibitors (Cell Signaling, catalog number: 9803S). Total protein content was quantified by Bradford assay and equal amounts of proteins were analyzed in duplicate with arrays containing 4 to 6 spots for each of 60 probes (ACC058, Cell Cycle Antibody Array; Full Moon Biosystems, Sunnyvale, Calif.), according to manufacturer's instructions. After background correction, mean signal intensities were measured using FullMoon Inc's imaging services. Protein expressions in both the naïve and 328 treatment group was normalized to GAPDH signals. Confocal Analysis of Septin Disarrangement. To determine the impact of UR214-9 treatment on Septin-2 structure in cells, PANC-1 or JIMT-1 cells were seeded on glass slides and allowed to adhere overnight. The media was replaced with complete DMEM media supplemented with DMSO or UR214-9 (1 μM and 70 nM) and cells were incubated for 48 hours. […] The cells were stained with fluorescence linked secondary antibody for 1 hr under dark. […] Five cells were outlined and analyzed per field. […]

As for `O=C(Nc1cc(Cl)nc(Cl)c1)Nc1cccc(SC(F)(F)F)c1F` [UR214-9], the HER2 expression entry is “reduced HER2 expression” in the experiment on HER2 (MDA-MB-231, JIMT-1 and MCF-7 cells, 10 and 30 μM, 24 hours); “dose-dependent decrease in HER2 expression” in the experiment with HER2 (PANC-1 (HER2+), 0.1, 1.0 and 10 μM, 72 hours). Moreover, the “Cullin-3 expression, treated versus naïve” value with Cullin-3 is listed as “most pronounced upregulation”.

The values above are taken from US12433876B2, “Septin inhibitors for treatment of cancers” (UNIVERSITY OF ROCHESTER, priority 2019, dated 2025).
